Test results published in patent US20030096237A1, “Determination of the ability of patients to respond to a tumor treatment” (priority 2000, published 2003).

System: CNCM I-2545
Assay: oligonucleotide array analysis of IFN-α modulated gene expression
Assay type: cell-based, human
Design: key to nAD M94880 mhc class i (hla-a*8001): normalized average difference between perfect and mismatch probeset signals
Procedure: All these cell lines were cultured in RPMI medium supplemented with 10% FCS, glutamine (2 mM), sodium pyruvate (1 mM), non-essential amino acids and HEPES buffer (10 mM) (all from GIBCO Life Sciences, Paisley, UK). When confluent, the cells were passaged by trypsinization.
Cultured melanoma cells were harvested by scraping and total cellular RNA was extracted. 10 μg from each sample were used directly as templates for cDNA synthesis using a commercial kit (Roche Molecular Biochemicals, Rotkreuz, Switzerland). The T7 promoter sequence incorporated into the cDNA synthesis primer allowed template amplification and biotin labeling by in vitro transcription using a commercial kit (Affymetrix, Santa Clara, Calif.). After alkaline heat fragmentation […] was hybridised to the array (Affymetrix, Santa Clara, Calif.) and all subsequent steps were performed following standard procedures as supplied with the arrays. Raw data were collected with a confocal laser scanner (Hewlett Packard, Palo Alto, Calif.) using GeneChip software v3.1 (Affymetrix, Santa Clara, Calif.).
Raw data were normalized based on the total chip signal obtained upon hybridisation of ME15 cell line cDNA. This array was selected because: i) the 5′/3′ intensity ratio of control genes was smaller than 3; ii)>25% of the genes are called “present” by Genechip; iii) the image appearance is homogeneous with low background and no sign of mechanical chip damage.
The normalized average difference (nAD) between the signals of the perfect and of the mismatch probesets for each gene was used as the expression level of a given gene. At least one nAD value in a pairwise comparison of data has to exceed 50 to be included. Based on nAD, change factors related to IFN-α exposure were also calculated. Negative nAD values were set to 20 in order to avoid the calculation of artificially high modifications. In order to exclude artefacts, only genes with robust change factors, greater than 2-fold, were included in the analysis. […] Genes were clustered according to their mode of regulation.
Total cellular RNA was extracted from the sensitive and resistant melanoma cell lines identified above, reverse transcribed and processed for hybridization to an oligonucleotide array (Hu6800FL, PN 900183) containing probe sets derived from 7000 full-length human genes. Expression levels for each gene were calculated as normalized average difference (nAD, see materials and methods).
Patterns of genes expressed in IFN-α sensitive and resistant melanoma cell lines were investigated upon 48 hour culture in the presence of IFN-α. CNCM I-2546 and CNCM I-2545 were studied in detail.
In Table 2 below, CNCM I-2546 and CNCM I-2545 cultured for 48 hours in the absence or in the presence of 100 U/ml IFN-α were used to assay cytokine modulated gene expression as matched with data obtained in fibrosarcoma cells. This analysis yielded six clusters of genes. […] Data are presented as average difference of signal intensity between match and mismatch probesets.
In Table 3 below, CNCM I-2546 and CNCM I-2545 cell lines cultured for 48 hours in the absence or in the presence of 100 U/ml IFN-α were used to identify novel cytokine induced genes whose expression was not found to be modulated in fibrosarcoma cells. Cluster 1 includes genes inducible in the CNCM I-2546 sensitive but not in the CNCM I-2545 resistant cell line. Cluster 2 comprises genes inducible in both lines. Data are presented as average difference of signal intensity between match and mismatch probesets.

[1] = CNCM I-2545 (+) IFN-α 100 U/ml 48 hours, (−) 11
[2] = CNCM I-2545 (+) IFN-α 100 U/ml 48 hours, (−) 106
[3] = CNCM I-2545 (+) IFN-α 100 U/ml 48 hours, (−) 115
[4] = CNCM I-2545 (+) IFN-α 100 U/ml 48 hours, (−) 234
[5] = CNCM I-2545 (+) IFN-α 100 U/ml 48 hours, (−) 238

In the case of IFN-α, the “nAD X15949 interferon regulatory factor-2 (irf-2)” value (CNCM I-2545 (+) IFN-α 100 U/ml 48 hours, (−) 0) is reported as 13, the “nAD M92642 alpha-1 type xvi collagen (col16a1)” value [1] is reported as 115 and the “nAD U18018 ela enhancer binding protein (ela-f)” value [1] is reported as 23. The “nAD M30818 interferon-induced cellular resistance mediator protein” value (CNCM I-2545 (+) IFN-α 100 U/ml 48 hours, (−) 20) was 5, the “nAD L07633 interferon-gamma” value (CNCM I-2545 (+) IFN-α 100 U/ml 48 hours, (−) 22) was 275 and the “nAD X70848 protein phosphatase 1, catalytic subunit” value (CNCM I-2545 (+) IFN-α 100 U/ml 48 hours, (−) 24) was 226. The “nAD D28137 bst-2” value (CNCM I-2545 (+) IFN-α 100 U/ml 48 hours, (−) 37) was 88, the “nAD J03909 gamma-interferon-inducible protein (ip-30)” value (CNCM I-2545 (+) IFN-α 100 U/ml 48 hours, (−) 42) was 142 and the “nAD L42243 ifnar2 gene (interferon receptor)” value (CNCM I-2545 (+) IFN-α 100 U/ml 48 hours, (−) 62) was −6. The “nAD J04182 lysosomal membrane glycoprotein-1 (lamp1)” value (CNCM I-2545 (+) IFN-α 100 U/ml 48 hours, (−) 66) was 484, the “nAD D78132 rheb gene, ras-related gtp binding protein gene” value (CNCM I-2545 (+) IFN-α 100 U/ml 48 hours, (−) 88) was 253 and the “nAD Z56281 interferon regulatory factor 3” value (CNCM I-2545 (+) IFN-α 100 U/ml 48 hours, (−) 93) was 31. For the same substance, the “nAD U53830 interferon regulatory factor 7a” value (CNCM I-2545 (+) IFN-α 100 U/ml 48 hours, (−) 103) was 5, the “nAD L40387 thyroid receptor interactor (trip14)” value (CNCM I-2545 (+) IFN-α 100 U/ml 48 hours, (−) 104) was 5 and the “nAD J00212 leukocyte interferon (ifn-alpha)” value [2] was 9. For the same substance, the “nAD U50648 interferon-inducible rna-dependent protein kinase (pkr)” value [2] was 46, the “nAD U69126 fuse binding protein 2 (fbp2)” value (CNCM I-2545 (+) IFN-α 100 U/ml 48 hours, (−) 114) was 159 and the “nAD M60784 ul snrnp-specific protein” value [3] was 413. For the same substance, the “nAD U70063 human acid ceramidase” value [3] was 400, the “nAD U72882 interferon-induced leucine zipper protein (ifp35)” value (CNCM I-2545 (+) IFN-α 100 U/ml 48 hours, (−) 125) was 27 and the “nAD X76538 mpv17” value (CNCM I-2545 (+) IFN-α 100 U/ml 48 hours, (−) 132) was 101. The “nAD M19650 2′,3′-cyclic nucleotide 3prime-phosphodiesterase” value (CNCM I-2545 (+) IFN-α 100 U/ml 48 hours, (−) 137) was 99, the “nAD X57522 ring4 cdna” value (CNCM I-2545 (+) IFN-α 100 U/ml 48 hours, (−) 143) was 49 and the “nAD M65028 heterogeneous nuclear ribonucleoprotein a/b” value (CNCM I-2545 (+) IFN-α 100 U/ml 48 hours, (−) 154) was 353. The “nAD K01900 lymphocyte interferon alpha type 201” value (CNCM I-2545 (+) IFN-α 100 U/ml 48 hours, (−) 156) was 7, the “nAD U78525 human eukaryotic translation initiation factor (eif3)” value (CNCM I-2545 (+) IFN-α 100 U/ml 48 hours, (−) 165) was 372 and the “nAD M79462 pml-1” value (CNCM I-2545 (+) IFN-α 100 U/ml 48 hours, (−) 201) was 11. For the same substance, the “nAD L37043 casein kinase i epsilon” value (CNCM I-2545 (+) IFN-α 100 U/ml 48 hours, (−) 218) was 221, the “nAD X04412 plasma gelsolin” value (CNCM I-2545 (+) IFN-α 100 U/ml 48 hours, (−) 220) was 220 and the “nAD X96401 rox protein” value (CNCM I-2545 (+) IFN-α 100 U/ml 48 hours, (−) 229) was 83. The “nAD D50914 EST” value [4] was 78, the “nAD X07730 prostate specific antigen” value [4] was 85 and the “nAD U72206 guanine nucleotide regulatory factor (lfp40)” value [5] was 162. The “nAD Z26491 gene catechol o-methyltransferase” value [5] was 181, the “nAD U91316 acyl-coa thioester hydrolase” value (CNCM I-2545 (+) IFN-α 100 U/ml 48 hours, (−) 253) was 428 and the “nAD U51127 interferon regulatory factor 5” value (CNCM I-2545 (+) IFN-α 100 U/ml 48 hours, (−) 262) was 91. For the same substance, the “nAD U52513 rig-g” value (CNCM I-2545 (+) IFN-α 100 U/ml 48 hours, (−) 289) was 10, the “nAD M97935 transcription factor isgf-3” value (CNCM I-2545 (+) IFN-α 100 U/ml 48 hours, (−) 331) was 92 and the “nAD U01824 glutamate/aspartate transporter” value (CNCM I-2545 (+) IFN-α 100 U/ml 48 hours, (−) 339) was 35. The “nAD HG2917 major histocompatibility complex, class i, e” value (CNCM I-2545 (+) IFN-α 100 U/ml 48 hours, (−) 353) was 322, the “nAD X90846 mixed lineage kinase 2” value (CNCM I-2545 (+) IFN-α 100 U/ml 48 hours, (−) 357) was 60 and the “nAD M31013 nonmuscle myosin heavy chain (nmhc)” value (CNCM I-2545 (+) IFN-α 100 U/ml 48 hours, (−) 377) was 263. For the same substance, the “nAD D21235 hhr23a protein” value (CNCM I-2545 (+) IFN-α 100 U/ml 48 hours, (−) 388) was 346, the “nAD Y00264 amyloid a4 precursor” value (CNCM I-2545 (+) IFN-α 100 U/ml 48 hours, (−) 392) was 427 and the “nAD Z47055 farnesyl pyrophosphate synthetase like” value (CNCM I-2545 (+) IFN-α 100 U/ml 48 hours, (−) 394) was 797. For the same substance, the “nAD U50327 protein kinase c substrate 80k-h gene (prkcsh)” value (CNCM I-2545 (+) IFN-α 100 U/ml 48 hours, (−) 401) was 236, the “nAD U61263 acetolactate synthase homolog” value (CNCM I-2545 (+) IFN-α 100 U/ml 48 hours, (−) 410) was 301 and the “nAD M34338 spermidine synthase” value (CNCM I-2545 (+) IFN-α 100 U/ml 48 hours, (−) 472) was 277. The “nAD D49824 hla-b null allele” value (CNCM I-2545 (+) IFN-α 100 U/ml 48 hours, (−) 527) was 267, the “nAD M94880 mhc class i (hla-a*8001)” value (CNCM I-2545 (+) IFN-α 100 U/ml 48 hours, (−) 551) was 421 and the “nAD HG1612 macmarcks” value (CNCM I-2545 (+) IFN-α 100 U/ml 48 hours, (−) 588) was 505. The “nAD U65579 mitochondrial nadh dehydrogenase-ubiquinone” value (CNCM I-2545 (+) IFN-α 100 U/ml 48 hours, (−) 630) was 621, the “nAD X95325 dna binding protein a variant” value (CNCM I-2545 (+) IFN-α 100 U/ml 48 hours, (−) 634) was 253 and the “nAD U47025 fetal brain glycogen phosphorylase b” value (CNCM I-2545 (+) IFN-α 100 U/ml 48 hours, (−) 672) was 465. The “nAD U18009 chromosome 17q21 clone lf113” value (CNCM I-2545 (+) IFN-α 100 U/ml 48 hours, (−) 674) was 423, the “nAD J04444 cytochrome c-1 gene” value (CNCM I-2545 (+) IFN-α 100 U/ml 48 hours, (−) 886) was 2268 and the “nAD HG658 major histocompatibility complex, class 1 c” value (CNCM I-2545 (+) IFN-α 100 U/ml 48 hours, (−) 1183) was 455. The “nAD D32050 alanyl-trna synthetase” value (CNCM I-2545 (+) IFN-α 100 U/ml 48 hours, (−) 1458) was 761, the “nAD J00105 beta-2 microglobulin gene” value (CNCM I-2545 (+) IFN-α 100 U/ml 48 hours, (−) 1668) was 2101 and the “nAD X57351 1-8d gene from interferon-inducible gene family” value (CNCM I-2545 (+) IFN-α 100 U/ml 48 hours, (−) 2469) was 2686. The “nAD U65932 extracellular matrix protein 1 (ecm1)” value (CNCM I-2545 (+) IFN-α 100 U/ml 48 hours, (−) 2498) was 1066, the “nAD L13210 mac-2 binding protein” value (CNCM I-2545 (+) IFN-α 100 U/ml 48 hours, (−) 2555) was 2092 and the “nAD K03515 neuroleukin” value (CNCM I-2545 (+) IFN-α 100 U/ml 48 hours, (−) 2998) was 2552. The “nAD M98343 amplaxin (ems1)” value (CNCM I-2545 (+) IFN-α 100 U/ml 48 hours, (−) −24) was 63, the “nAD L35249 vacuolar h + -atpase mr 56,000 subunit (ho57)” value (CNCM I-2545 (+) IFN-α 100 U/ml 48 hours, (−) −40) was 357 and the “nAD U09579 melanoma differentiation associated (mda-6)” value (CNCM I-2545 (+) IFN-α 100 U/ml 48 hours, (−) −59) was −26. For the same substance, the “nAD U41515 dss1” value (CNCM I-2545 (+) IFN-α 100 U/ml 48 hours, (−) −62) was 123, the “nAD S81914 iex-1 = radiation-inducible immediate-early gene” value (CNCM I-2545 (+) IFN-α 100 U/ml 48 hours, (−) −66) was 21 and the “nAD M13755 interferon-induced 17-kda/15-kda protein” value (CNCM I-2545 (+) IFN-α 100 U/ml 48 hours, (−) −163) was 31. For the same substance, the “nAD U22970 16-jun gene, interferon-inducible peptide (6-16)” value (CNCM I-2545 (+) IFN-α 100 U/ml 48 hours, (−) −190) was 24, the “nAD J04164 interferon-inducible protein 27-sep” value (CNCM I-2545 (+) IFN-α 100 U/ml 48 hours, (−) −447) was −97 and the “nAD X67325 p27” value (CNCM I-2545 (+) IFN-α 100 U/ml 48 hours, (−) −460) was −86. The “change factor (CF) D21235 hhr23a protein” value (CNCM I-2545, IFN-α 100 U/ml 48 hours) was −0.12.
